Assay results published in the NIST ThermoML archive (doi:10.1016/j.jct.2015.07.046).
Numbers after ± are expanded uncertainties.

Test: activity coefficient (dimensionless); of the first substance listed, at infinite dilution; xn = mol fraction of the nth substance listed
Details: 101.3 kPa, Liquid, Chromatography, x1 = 0

SMILES | activity coefficient (313.15 K) | activity coefficient (323.15 K) | activity coefficient (333.15 K) | activity coefficient (343.15 K) | activity coefficient (353.15 K) | activity coefficient (363.15 K)
CCCCCCCCCC [decane] + CCn1cc[n+](C)c1.COP(=O)([O-])OC | 430 ± 45 | 388 ± 41 | 354 ± 37 | 316 ± 33 | 294 ± 31 | 245 ± 26
CCCCC [pentane] + COP(=O)([O-])OC.Cn1cc[n+](C)c1 | 245 ± 26 | 230 ± 24 | 217 ± 23 | 201 ± 21 | 184 ± 19 | 170 ± 18
CC(C)CC(C)(C)C [2,2,4-trimethylpentane] + COP(=O)([O-])OC.Cn1cc[n+](C)c1 | 318 ± 34 | 301 ± 32 | 284 ± 30 | 270 ± 28 | 244 ± 26 | 229 ± 24
Cc1cccc(C)c1 [1,3-dimethylbenzene] + COP(=O)([O-])OC.Cn1cc[n+](C)c1 | 14.6 ± 1.5 | 14.4 ± 1.5 | 14.2 ± 1.5 | 14.2 ± 1.5 | 14.1 ± 1.5 | 13.9 ± 1.5
Cc1ccccc1C [1,2-dimethylbenzene] + COP(=O)([O-])OC.Cn1cc[n+](C)c1 | 12.7 ± 1.3 | 12.5 ± 1.3 | 12.4 ± 1.3 | 12.2 ± 1.3 | 12.1 ± 1.3 | 12 ± 1.3
CCCCCCC [heptane] + COP(=O)([O-])OC.Cn1cc[n+](C)c1 | 297 ± 31 | 279 ± 29 | 258 ± 27 | 243 ± 26 | 231 ± 24 | 216 ± 23
c1ccccc1 [benzene] + CCn1cc[n+](C)c1.COP(=O)([O-])OC | 3.51 ± 0.37 | 3.33 ± 0.35 | 3.2 ± 0.34 | 3.12 ± 0.33 | 3.02 ± 0.32 | 2.87 ± 0.3
C1CCCCC1 [cyclohexane] + COP(=O)([O-])OC.Cn1cc[n+](C)c1 | 58.4 ± 6.2 | 56 ± 5.9 | 52.6 ± 5.5 | 50.9 ± 5.4 | 48 ± 5.1 | 45.7 ± 4.8
Cc1cccc(C)c1 [1,3-dimethylbenzene] + CCn1cc[n+](C)c1.COP(=O)([O-])OC | 12.4 ± 1.3 | 11.8 ± 1.2 | 11.2 ± 1.2 | 10.8 ± 1.1 | 10.5 ± 1.1 | 9.99 ± 1.1
CCCCCCC [heptane] + CCn1cc[n+](C)c1.COP(=O)([O-])OC | 162 ± 17 | 151 ± 16 | 138 ± 15 | 124 ± 13 | 111 ± 12 | 97.7 ± 10
CCCCCC [hexane] + COP(=O)([O-])OC.Cn1cc[n+](C)c1 | 260 ± 27 | 246 ± 26 | 230 ± 24 | 218 ± 23 | 203 ± 21 | 187 ± 20
C=Cc1ccccc1 [styrene] + CCn1cc[n+](C)c1.COP(=O)([O-])OC | 5.45 ± 0.57 | 5.29 ± 0.56 | 5.16 ± 0.54 | 5.01 ± 0.53 | 4.86 ± 0.51 | 4.71 ± 0.49
C1=CCCCC1 [cyclohexene] + COP(=O)([O-])OC.Cn1cc[n+](C)c1 | 32.7 ± 3.5 | 31.6 ± 3.3 | 30.7 ± 3.2 | 30.1 ± 3.2 | 29.1 ± 3.1 | 28.3 ± 3
Cc1ccccc1 [toluene] + COP(=O)([O-])OC.Cn1cc[n+](C)c1 | 7.57 ± 0.8 | 7.54 ± 0.79 | 7.51 ± 0.79 | 7.48 ± 0.79 | 7.47 ± 0.79 | 7.45 ± 0.78
CCCCCCCCC [nonane] + CCn1cc[n+](C)c1.COP(=O)([O-])OC | 272 ± 29 | 243 ± 26 | 225 ± 24 | 207 ± 22 | 197 ± 21 | 182 ± 19
CCCCCCCCC [nonane] + COP(=O)([O-])OC.Cn1cc[n+](C)c1 | 400 ± 42 | 384 ± 40 | 368 ± 39 | 351 ± 37 | 345 ± 36 | 327 ± 34

SMILES | activity coefficient (313.15 K) | activity coefficient (323.15 K) | activity coefficient (333.15 K) | activity coefficient (343.15 K) | activity coefficient (353.15 K) | activity coefficient (363.15 K)
C=Cc1ccccc1 [styrene] + COP(=O)([O-])OC.Cn1cc[n+](C)c1 | – | 6.62 ± 0.7 | 6.61 ± 0.69 | 6.6 ± 0.69 | 6.58 ± 0.69 | 6.57 ± 0.69
CCCCCCCC [octane] + COP(=O)([O-])OC.Cn1cc[n+](C)c1 | 340 ± 36 | 325 ± 34 | 302 ± 32 | 285 ± 30 | 270 ± 28 | 248 ± 26
CCCCCCCC [octane] + CCn1cc[n+](C)c1.COP(=O)([O-])OC | 202 ± 21 | 187 ± 20 | 173 ± 18 | 158 ± 17 | 144 ± 15 | 132 ± 14
c1ccccc1 [benzene] + COP(=O)([O-])OC.Cn1cc[n+](C)c1 | 3.64 ± 0.38 | 3.62 ± 0.38 | 3.61 ± 0.38 | 3.59 ± 0.38 | 3.57 ± 0.38 | 3.56 ± 0.37
CC1CCCCC1 [methylcyclohexane] + CCn1cc[n+](C)c1.COP(=O)([O-])OC | 77.7 ± 8.2 | 68.3 ± 7.2 | 61.5 ± 6.5 | 55.9 ± 5.9 | 50.5 ± 5.3 | 45.5 ± 4.8
CCCCCCCCCC [decane] + COP(=O)([O-])OC.Cn1cc[n+](C)c1 | 503 ± 53 | 480 ± 51 | 466 ± 49 | 448 ± 47 | 431 ± 46 | 414 ± 44
CCCCC [pentane] + CCn1cc[n+](C)c1.COP(=O)([O-])OC | 125 ± 13 | 106 ± 11 | 88.5 ± 9.3 | 69.8 ± 7.4 | 60.5 ± 6.4 | 52.9 ± 5.6
C1=CCCCC1 [cyclohexene] + CCn1cc[n+](C)c1.COP(=O)([O-])OC | 25.4 ± 2.7 | 22.4 ± 2.4 | 20 ± 2.1 | 18.7 ± 2 | 16.9 ± 1.8 | 15.5 ± 1.6
Cc1ccc(C)cc1 [1,4-dimethylbenzene] + COP(=O)([O-])OC.Cn1cc[n+](C)c1 | 13.8 ± 1.4 | 13.6 ± 1.4 | 13.5 ± 1.4 | 13.4 ± 1.4 | 13.2 ± 1.4 | 13.1 ± 1.4
CCCCCC [hexane] + CCn1cc[n+](C)c1.COP(=O)([O-])OC | 139 ± 15 | 122 ± 13 | 107 ± 11 | 87.6 ± 9.2 | 72.2 ± 7.6 | 61.5 ± 6.5
Cc1ccccc1 [toluene] + CCn1cc[n+](C)c1.COP(=O)([O-])OC | 6.45 ± 0.68 | 6.14 ± 0.65 | 5.94 ± 0.62 | 5.73 ± 0.6 | 5.56 ± 0.58 | 5.4 ± 0.57
CC1CCCCC1 [methylcyclohexane] + COP(=O)([O-])OC.Cn1cc[n+](C)c1 | 83.4 ± 8.8 | 80.8 ± 8.5 | 78.3 ± 8.2 | 75.4 ± 7.9 | 73 ± 7.7 | 69.9 ± 7.4
Cc1ccccc1C [1,2-dimethylbenzene] + CCn1cc[n+](C)c1.COP(=O)([O-])OC | 10.2 ± 1.1 | 9.8 ± 1 | 9.59 ± 1 | 9.3 ± 0.98 | 9.14 ± 0.96 | 9 ± 0.95
Cc1ccc(C)cc1 [1,4-dimethylbenzene] + CCn1cc[n+](C)c1.COP(=O)([O-])OC | 12.1 ± 1.3 | 11.5 ± 1.2 | 10.9 ± 1.1 | 10.5 ± 1.1 | 9.99 ± 1.1 | 9.53 ± 1
C1CCCCC1 [cyclohexane] + CCn1cc[n+](C)c1.COP(=O)([O-])OC | 53.9 ± 5.7 | 48.9 ± 5.2 | 44 ± 4.6 | 40.6 ± 4.3 | 37.7 ± 4 | 32.9 ± 3.5
CC(C)CC(C)(C)C [2,2,4-trimethylpentane] + CCn1cc[n+](C)c1.COP(=O)([O-])OC | 183 ± 19 | 170 ± 18 | 158 ± 17 | 143 ± 15 | 132 ± 14 | 119 ± 13
